From patent EP2662079A1 (Ordway Research Institute, Inc., priority 2012, dated 2013)

How the values were obtained:
[1] = test system: GL261 tumor cells; assay: 44°C hyperthermia survival; format: cell-based, murine
Procedure: Additionally, Tetrac sensitizes GL261 cells in hyperthermic conditions. Graded heat treatment of GL261 tumor cells with 44°C was given, without and with Tetrac. Tetrac increased cell killing as compared to control cells alone, by the equivalent of about 1°C (i.e., 44°C plus Tetrac is the equivalent of 45°C without Tetrac). (See Figure 63).

[2] = test system: chick chorioallantoic membrane (CAM); assay: Chorioallantoic membrane (CAM) model of angiogenesis; format: in vivo
Procedure: In vivo neovascularization was examined by methods described previously. 9-12 Ten-day-old chick embryos were purchased from SPAFAS (Preston, CT) and incubated at 37°C with 55% relative humidity. A hypodermic needle was used to make a small hole in the shell concealing the air sac, and a second hole was made on the broad side of the egg, directly over an avascular portion of the embryonic membrane that was identified by candling. A false air sac was created beneath the second hole by the application of negative pressure at the first hole, causing the CAM to separate from the shell. A window approximately 1.0 cm^2 was cut in the shell over the dropped CAM with a small-crafts grinding wheel (Dremel, division of Emerson Electric Co.), allowing direct access to the underlying CAM. FGF2 (1µg/mL) was used as a standard proangiogenic agent to induce new blood vessel branches on the CAM of 10-day-old embryos. Sterile disks of No. 1 filter paper (Whatman International) were pretreated with 3 mg/mL cortisone acetate and 1 mmol/L PTU and air dried under sterile conditions. Thyroid hormone, hormone analogs, FGF2 or control solvents, and inhibitors were then applied to the disks and the disks allowed to dry. The disks were then suspended in PBS and placed on growing CAMs. […] At 24 hours, the MAPK cascade inhibitor PD 98059 was also added to CAMs topically by means of the filter disks.
After incubation at 37°C with 55% relative humidity for 3 days, the CAM tissue directly beneath each filter disk was resected from control and treated CAM samples. Tissues were washed 3X with PBS, placed in 35-mm Petri dishes (Nalge Nunc), and examined under an SV6 stereomicroscope (Zeiss) at X50 magnification. Digital images of CAM sections exposed to filters were collected using a 3-charge-coupled device color video camera system (Toshiba) and analyzed with Image-Pro software (Media Cybernetics). The number of vessel branch points contained in a circular region equal to the area of each filter disk were counted. One image was counted in each CAM preparation, and findings from 8 to 10 CAM preparations were analyzed for each treatment condition (thyroid hormone or analogs, FGF2, FGF2 antibody, PD 98059). In addition, each experiment was performed 3 times. The resulting angiogenesis index is the mean ± SEM of new branch points.

[3] = test system: U87MG cells; assay: Clonogenic survival after 250 kVp x-irradiation; format: cell-based, human
Procedure: To irradiate culture flasks, a Philips 250 kVp x-ray machine (Philips Corp., Fall River, MA) operated at 250 kVp and 15 mA with added filtration of a 0.4 mm Thoreaus filter was used. The target to source distance was 30 cm. Dose rates were measured using an R-meter (Victoreen Co., Cleveland, OH), and converted to absorbed (Gy) doses using appropriate temperature, pressure, and R to Gy conversion factors. The dose rate was approximately 1 Gy/min. Flasks were irradiated after being taken from a 37°C environment and moved to the x-ray source. Movement at ambient temperature took approximately 1-2 min. Cells were next placed on ice and allowed to cool for 5 min. Lastly, flasks were placed in the Philips irradiator on top of a 2 mm thickness of Lucite which was on top of a layer of crushed ice. […]
For SHMT analysis, data lying at or below a fractional survival (FxS) value of 0.368 were fit using a linear regression analysis of the log survival data versus linear dose. From this fit the extrapolation number (n), the quasi-threshold dose (Dq, Gy) and the inverse of the inactivation slope (Do, Gy) were derived.
For LQ analyses, survival data lying between the fractional survivals of 1.00 and 0.05 were used. The log survival data were transformed to a linear form using the relationship (- ln FxS/D) and plotted against D. A linear regression analysis was performed to yield the LQ equation along with the 95% confidence limits on the γ-intercept (alpha) and the slope (beta) using a t-table with the appropriate (N-1) degrees of freedom. (See Goldstein A. Biostatistics, Academic Press, 1995.)

[4] = test system: Matrigel plugs; assay: Mouse Matrigel model of angiogenesis (plug hemoglobin); format: in vivo, mice (C57BL/6NCr)
Procedure: Normal male mice (C57BL/6NCr) 6-8 weeks of age and weighing ~20 g were purchased from Taconic farm. Animals were housed 4 per cage, in controlled conditions of temperature (20-24 °C); humidity (60-70%) and 12 hrs. light/dark cycle provided with food and water ad libitum. […] Matrigel (BD Bioscience, San Jose CA) was thawed overnight at 4 °C and placed on ice. Aliquots of matrigel were placed into cold polypropylene tubes to prevent the matrigel from solidifying and the angiogenesis promoter added to matrigel with or without agonist. Mice were treated daily. Matrigel was subcutaneously injected as triple injection per animal at 100 µL/animal. At day 14 post plug implant all animals were killed in CO2 chamber and matrigel plugs were collected. […]
The matrigel plugs dissected from the mice were carefully stripped of any remaining peritoneum. The plugs were placed into 0.5 mL tube of ddH2O and homogenized for 5-10 min. […] Absorbance was read with a Microplate Manager ELISA reader at 540 nm. […] Hemoglobin concentration is a reflection of the number of blood vessels in the plugs.

[5] = test system: Human medullary carcinoma cells (TT); format: in vivo
Source text: Cells and cell culture. […] Tetrac versus Tetrac NP distribution in h-MTC. […] Penicillin streptomycin (1%) was present in both culture media. […] Cell implantation in nude mice. […] Water and food were provided ad libitum.
(§1) Treatment of animals with unmodified or nanoparticulate Tetrac. […] Estimation of tumor response to Tetrac or nanoparticulate Tetrac. […] Statistical analysis for CAM and xenograft studies. […] Statistical significance was defined as P <0.05. RNA microarray analysis.

[6] = test system: h-MTC cells; assay: RNA microarray of MTC cells; format: cell-based, human
Source text: as §1

SMILES: O=C(O)Cc1cc(I)c(Oc2cc(I)c(O)c(I)c2)c(I)c1 [Tetrac, 3,3',5,5'-tetraiodothyroacetic acid]
- increase in cell killing as temperature equivalent ([1]; 44°C plus Tetrac): about 1 °C
- sensitization factor ([1]; Tetrac 2uM, 20 minutes at 44°C): 3.8
- effect of Tetrac alone on angiogenesis ([2]; CAM model (Figure 3C)): no effect
- Mean Branch points ([2]; CAM model, FGF (1.25 µg/ml) + compound at 10 µg/plug, n=8): 81± 8
- effect on the action of T4 in the CAM model ([2]; Tetrac 0.1 µmol/L): inhibited
- increase of α (ratio of the alpha values) [3]: 3.6 fold
- increase of β [3]: 4.8 fold
- median sensitization factor [3]: 3.6
- ratio of relative survival values at 2 Gy [3]: 4.6
- reduction of the DQ value [3]: 100%
- reduction of the Do value [3]: 31%
- α ([3]; LQ, Tetrac treated cells): 0.817 (± 0.091)
- β ([3]; LQ, Tetrac treated cells): 0.076 (± 0.006)
- DQ (Gy) ([3]; SHMT, Tetrac treated cells): 0.00 ± 0.22 Gy
- Do (Gy) ([3]; SHMT, Tetrac treated cells): 1.09 ± 0.36 Gy
- relative survival at 2 Gy ([3]; Tetrac treated cells (control 59.6)): 12.8
- isoeffect comparison ratio ([3]; at 10% survival): 2.2
- average sensitization factor ([3]; average of 3 comparisons, range of 2.2 to 4.6): 3.5
- Hemoglobin (mg/mL)± SEM ([4]; FGF 100 ng + compound 10 µg/plug, n= 7-14): 0.5 ± 0.1 mg/mL
- Mean inhibition of angiogenesis (%) ([4]; FGF-induced angiogenesis, 10 µg/plug): 85%
- Hemoglobin (mg/mL)± SEM ([4]; T4 + antagonist, each 10 µg/matrigcl plug): 0.4 ± 0.1 mg/mL
- reduction of tumor mass compared to controls ([5]; Tetrac 10 mg/kg i.p., nanoparticulate Tetrac 1 mg/kg i.p., end of study): 65-80%
- decrease of tumor tissue hemoglobin content ([5]; Tetrac 10 mg/kg or Tetrac NP 1 mg/kg i.p. daily for 3 weeks): 66%
- reduction in tumor-associated neovascularization (hemoglobin levels in tumor tissue) ([5]; Tetrac 10 mg/kg or Tetrac NP 1 mg/kg i.p. daily for 21 days): 70-80%
- tumor size ([5]; Tetrac 10 mg/kg or Tetrac NP 1 mg/kg i.p. daily, over 21 days): < 100 mm^3
- time to detected reduction in tumor size ([5]; after initiation of treatment): ≤ 2 days
- expression of VEGFA [6]: significantly decreased expression
- expression of apoptosis-associated genes (CASP2, DFFA, FAF1, CASP8AP2) [6]: caused expression
- expression of thrombospondin (THBS1) [6]: increase
